Values after ≈ are worked out from the molar mass of the structure shown. Where a SMILES comes first, the peptide text is derived from it. The star is where a group is joined. Boc = CC(C)(C)OC(=O)*; NHBn = c1ccc(CN*)cc1
Tests used:
[1] = system: Staphylococcus aureus; experiment: Antibacterial activity against methicillin-resistant Staphylococcus aureus DSM 50128509; assay type: functional, organism-based
[2] = system: Pseudomonas aeruginosa; experiment: Antibacterial activity against Pseudomonas aeruginosa ATCC 9027 after 15 to 18 hrs under aerobic condition by modified broth microdilution method; assay type: functional
[3] = system: Klebsiella pneumoniae; experiment: Antibacterial activity against Klebsiella pneumoniae ATCC 700603 after 15 to 18 hrs under aerobic condition by modified broth microdilution method; assay type: functional
[4] = system: Staphylococcus epidermidis; experiment: Antibacterial activity against methicillin-resistant Staphylococcus epidermidis DSM 50160384 after 15 to 18 hrs under aerobic condition by modified broth microdilution method; assay type: functional
[5] = system: L929; experiment: Cytotoxicity against mouse L929 cells up to 200 ug/mL after 5 days by MTT assay; assay type: cell-based; settings: l929, 120 h
[6] = system: Candida albicans; experiment: Antifungal activity against Candida albicans ATCC 10231 after 15 to 18 hrs under aerobic condition by modified broth microdilution method; assay type: functional
[7] = system: Candida albicans; experiment: Antifungal activity against Candida albicans ATCC 10231; assay type: functional, organism-based
[8] = system: Escherichia coli; experiment: Antibacterial activity against Escherichia coli ATCC 35218 after 15 to 18 hrs under aerobic condition by modified broth microdilution method; assay type: functional
[9] = system: Staphylococcus aureus; experiment: Antibacterial activity against methicillin-resistant Staphylococcus aureus DSM 50128509 after 15 to 18 hrs under aerobic condition by modified broth microdilution method; assay type: functional
[10] = system: Staphylococcus epidermidis; experiment: Antibacterial activity against methicillin-resistant Staphylococcus epidermidis DSM 50160384; assay type: functional, organism-based
[11] = system: Escherichia coli; experiment: Antibacterial activity against Escherichia coli ATCC 35218; assay type: functional, organism-based

Row | SMILES | IC50 [1] [µg/mL] | MIC [2] [µg/mL] | MIC [3] [µg/mL] | MIC [4] [µg/mL] | Activity [5] | MIC [6] [µg/mL] | IC50 [7] [µg/mL] | MIC [8] [µg/mL] | MIC [9] [µg/mL] | IC50 [10] [µg/mL] | IC50 [11] [µg/mL]
1 | N[C@@H](Cc1c[nH]c2ccccc12)C(=O)N[C@@H](Cc1c[nH]cn1)C(=O)NCc1ccccc1 (H-Trp-His-NHBn) | 12.3 (≈ 28.5 µM) | > 200 | > 200 | 200 (≈ 465 µM) | Non-toxic | 200 (≈ 465 µM) | 15.2 (≈ 35.2 µM) | > 200 | 200 (≈ 465 µM) | 29 (≈ 67.3 µM) | 
2 | COC(=O)[C@H](Cc1c[nH]cn1)NC(=O)[C@H](Cc1c[nH]c2ccccc12)NC(=O)OC(C)(C)C (Boc-Trp-His-OMe) | 16.4 (≈ 35.9 µM) | > 200 | > 200 | > 200 | Non-toxic | 200 (≈ 439 µM) | 31.4 (≈ 68.9 µM) | > 200 | 200 (≈ 439 µM) |  | 
3 | CC(C)c1nc(C[C@H](NC(=O)[C@@H](N)Cc2c[nH]c3ccccc23)C(=O)NCc2ccccc2)c[nH]1 |  | > 200 | > 200 | 100 (≈ 212 µM) | Non-toxic | > 200 |  | > 200 | > 200 | 12.8 (≈ 27.1 µM) | 
4 | N=C(N)NCCC[C@H](NC(=O)[C@@H](N)Cc1c[nH]c(C2CCC2)n1)C(=O)NCc1ccccc1 | 6.99 (≈ 15.4 µM) | > 200 | > 200 | 50 (≈ 110 µM) | Non-toxic | 100 (≈ 220 µM) | 9.95 (≈ 21.9 µM) | > 200 | 50 (≈ 110 µM) | 3.94 (≈ 8.67 µM) | 
5 | CC(C)(C)OC(=O)N[C@@H](Cc1c[nH]c2ccccc12)C(=O)N[C@@H](Cc1c[nH]c(C2CCC2)n1)C(=O)NCc1ccccc1 | 22.4 (≈ 38.2 µM) | > 200 | > 200 | > 200 | Non-toxic | 200 (≈ 342 µM) | 33.2 (≈ 56.7 µM) | > 200 | 200 (≈ 342 µM) |  | 
6 | CC(C)(C)OC(=O)N[C@@H](Cc1c[nH]c(C2CCCCC2)n1)C(=O)N[C@@H](CCCNC(=N)N)C(=O)NCc1ccccc1 | 12.1 (≈ 20.7 µM) | > 200 | > 200 | 100 (≈ 172 µM) | Non-toxic | > 200 |  | 200 (≈ 343 µM) | 100 (≈ 172 µM) | 18.4 (≈ 31.6 µM) | 
7 | CC(C)c1nc(C[C@H](NC(=O)[C@H](Cc2c[nH]c3ccccc23)NC(=O)OC(C)(C)C)C(=O)NCc2ccccc2)c[nH]1 | 10.3 (≈ 17.9 µM) | > 200 | > 200 | > 200 | Non-toxic | > 200 |  | > 200 | 200 (≈ 349 µM) |  | 
8 | COC(=O)[C@H](Cc1c[nH]c(C(C)(C)C)n1)NC(=O)[C@H](Cc1c[nH]c2ccccc12)NC(=O)OC(C)(C)C | 4.35 (≈ 8.5 µM) | > 200 | > 200 | 100 (≈ 195 µM) | Non-toxic | > 200 |  | 200 (≈ 391 µM) | 50 (≈ 97.7 µM) | 8.12 (≈ 15.9 µM) | 16.3 (≈ 31.8 µM)
9 | CC(C)(C)OC(=O)N[C@@H](Cc1c[nH]c2ccccc12)C(=O)N[C@@H](Cc1c[nH]c(C2CCCCC2)n1)C(=O)NCc1ccccc1 | 31.7 (≈ 51.7 µM) | > 200 | > 200 | 200 (≈ 326 µM) | Non-toxic | > 200 |  | > 200 | 200 (≈ 326 µM) | 23.8 (≈ 38.9 µM) | 
10 | COC(=O)[C@H](CCCNC(=N)N)NC(=O)[C@@H](N)Cc1c[nH]c(C2CCCCC2)n1 | 20.9 (≈ 51.4 µM) | > 200 | > 200 | 10 (≈ 24.5 µM) | Non-toxic | 200 (≈ 491 µM) | 27.5 (≈ 67.6 µM) | > 200 | 50 (≈ 123 µM) | 1.92 (≈ 4.71 µM) | 
11 | COC(=O)[C@H](CCCNC(=N)N)NC(=O)[C@H](Cc1c[nH]c(C(C)(C)C)n1)NC(=O)OC(C)(C)C | 4.15 (≈ 8.62 µM) | > 200 | > 200 | 200 (≈ 415 µM) | Non-toxic | > 200 |  | > 200 | 100 (≈ 208 µM) | 20.1 (≈ 41.8 µM) | 
12 | COC(=O)[C@H](CCCNC(=N)N)NC(=O)[C@H](Cc1c[nH]c(C(C)C)n1)NC(=O)OC(C)(C)C | 12.4 (≈ 26.6 µM) | > 200 | > 200 | 200 (≈ 428 µM) | Non-toxic | 200 (≈ 428 µM) | 20.9 (≈ 44.6 µM) | > 200 | 200 (≈ 428 µM) | 13.1 (≈ 28 µM) | 
13 | COC(=O)[C@H](Cc1c[nH]c(C(C)(C)C)n1)NC(=O)[C@@H](N)Cc1c[nH]c2ccccc12 | 4.21 (≈ 10.2 µM) | > 200 | > 200 | 100 (≈ 243 µM) | Non-toxic | > 200 |  | 200 (≈ 486 µM) | 10 (≈ 24.3 µM) | 6.73 (≈ 16.4 µM) | 19 (≈ 46.2 µM)
14 | CN[C@H](CC(C)C)C(=O)N[C@H]1C(=O)N[C@@H](CC(N)=O)C(=O)N[C@H]2C(=O)N[C@H]3C(=O)N[C@H](C(=O)N[C@H](C(=O)O)c4cc(O)cc(O)c4-c4cc3ccc4O)[C@H](O)c3ccc(c(Cl)c3)Oc3cc2cc(c3O[C@@H]2O[C@H](CO)[C@@H](O)[C@H](O)[C@H]2O[C@H]2C[C@](C)(N)[C@H](O)[C@H](C)O2)Oc2ccc(cc2Cl)[C@H]1O [VANCOMYCIN] | 0.14 (≈ 0.0966 µM) |  |  |  |  |  |  |  |  | 0.14 (≈ 0.0966 µM) | 
15 | COC(=O)[C@H](CCCNC(=N)N)NC(=O)[C@H](Cc1c[nH]cn1)NC(=O)OC(C)(C)C (Boc-His-Arg-OMe) |  | > 200 | > 200 | 100 (≈ 235 µM) | Non-toxic | > 200 |  | > 200 | > 200 | 5.07 (≈ 11.9 µM) | 
16 | COC(=O)[C@H](Cc1c[nH]c(C(C)C)n1)NC(=O)[C@H](Cc1c[nH]c2ccccc12)NC(=O)OC(C)(C)C |  | > 200 | > 200 | > 200 | Non-toxic | > 200 |  | > 200 | > 200 |  | 
17 | CC(C)(C)OC(=O)N[C@@H](Cc1c[nH]c2ccccc12)C(=O)N[C@@H](Cc1c[nH]c(C23CC4CC(CC(C4)C2)C3)n1)C(=O)NCc1ccccc1 | 7.59 (≈ 11.4 µM) | > 200 | 200 (≈ 301 µM) | 200 (≈ 301 µM) | Non-toxic | 200 (≈ 301 µM) | 28.3 (≈ 42.6 µM) | > 200 | 100 (≈ 150 µM) | 29.1 (≈ 43.7 µM) | 
18 | CN[C@@H]1[C@H](O[C@H]2[C@H](O[C@H]3[C@H](O)[C@@H](O)[C@H](N=C(N)N)[C@@H](O)[C@@H]3N=C(N)N)O[C@@H](C)[C@]2(O)C=O)O[C@@H](CO)[C@H](O)[C@H]1O [STREPTOMYCIN] |  |  |  |  |  |  |  |  |  |  | 0.73 (≈ 1.26 µM)
19 | CC(C)(C)c1nc(C[C@H](N)C(=O)N[C@@H](CCCNC(=N)N)C(=O)NCc2ccccc2)c[nH]1 | 4.18 (≈ 9.15 µM) | > 200 | > 200 | 10 (≈ 21.9 µM) | Non-toxic | > 200 |  | > 200 | 20 (≈ 43.8 µM) | 3.13 (≈ 6.86 µM) | 
20 | CC(C)(C)OC(=O)N[C@@H](Cc1c[nH]cn1)C(=O)N[C@@H](CCCNC(=N)N)C(=O)NCc1ccccc1 (Boc-His-Arg-NHBn) |  | > 200 | > 200 | 100 (≈ 200 µM) | Non-toxic | > 200 |  | > 200 | > 200 | 8.79 (≈ 17.6 µM) | 
21 | C[C@@H]1[C@H](O)[C@@H](C)/C=C/C=C/C=C/C=C/C=C/C=C/C=C/[C@H](O[C@@H]2O[C@H](C)[C@@H](O)[C@H](N)[C@@H]2O)C[C@@H]2O[C@](O)(C[C@@H](O)C[C@@H](O)[C@H](O)CC[C@@H](O)C[C@@H](O)CC(=O)O[C@H]1C)C[C@H](O)[C@H]2C(=O)O [AMPHOTERICIN B] |  |  |  |  |  |  | 0.34 (≈ 0.368 µM) |  |  |  | 
22 | COC(=O)[C@H](CCCNC(=N)N)NC(=O)[C@@H](N)Cc1c[nH]c(C(C)C)n1 | 4.82 (≈ 13.1 µM) | > 200 | > 200 | 50 (≈ 136 µM) | Non-toxic | > 200 |  | 200 (≈ 544 µM) | 50 (≈ 136 µM) | 5.42 (≈ 14.8 µM) | 9.98 (≈ 27.2 µM)
23 | CC(C)(C)OC(=O)N[C@@H](Cc1c[nH]c2ccccc12)C(=O)N[C@@H](Cc1c[nH]c(C(C)(C)C)n1)C(=O)NCc1ccccc1 |  | > 200 | > 200 | > 200 | Non-toxic | > 200 |  | > 200 | > 200 |  | 
24 | COC(=O)[C@H](CCCNC(=N)N)NC(=O)[C@@H](N)Cc1c[nH]cn1 (H-His-Arg-OMe) | 4.88 (≈ 15 µM) | > 200 | > 200 | 50 (≈ 154 µM) | Non-toxic | > 200 |  | > 200 | 100 (≈ 307 µM) | 2.72 (≈ 8.36 µM) | 
25 | CC(C)(C)c1nc(C[C@H](NC(=O)[C@@H](N)Cc2c[nH]c3ccccc23)C(=O)NCc2ccccc2)c[nH]1 |  | > 200 | > 200 | 100 (≈ 205 µM) | Non-toxic | > 200 |  | > 200 | > 200 | 9.24 (≈ 19 µM) | 
26 | N=C(N)NCCC[C@H](NC(=O)[C@@H](N)Cc1c[nH]cn1)C(=O)NCc1ccccc1 (H-His-Arg-NHBn) | 7.04 (≈ 17.6 µM) | > 200 | > 200 | 100 (≈ 250 µM) | Non-toxic | 200 (≈ 499 µM) | 16.6 (≈ 41.5 µM) | > 200 | 100 (≈ 250 µM) | 8.07 (≈ 20.2 µM) | 
27 | COC(=O)[C@H](Cc1c[nH]c(C2CCC2)n1)NC(=O)[C@H](Cc1c[nH]c2ccccc12)NC(=O)OC(C)(C)C | 2.95 (≈ 5.79 µM) | > 200 | > 200 | 100 (≈ 196 µM) | Non-toxic | > 200 |  | 200 (≈ 392 µM) | 100 (≈ 196 µM) | 5.44 (≈ 10.7 µM) | 24.6 (≈ 48.3 µM)

Reference: ChEMBL document CHEMBL1154782, “Discovery of Trp-His and His-Arg analogues as new structural classes of short antimicrobial peptides” (J Med Chem, 2009)
